Test results reported in ChEMBL document CHEMBL5550211 (J Med Chem, 2024).
In brackets after ≈: the same amount, converted by molar mass. Activity calls are given as the source filed them. No cut-off for these calls is given here.

How the values were obtained:
A-375 [1] = assay: Antitumor activity against human A-375 cells harboring BRAF V600E mutant xenografted in Nu/nu NCR mouse assessed as IC90 coverage at 5 mg/kg, po BID for 60 days; format: functional, organism-based; conditions: time 60.0 day
[2] = Cmax in mouse at 30 mg/kg, po; format: ADME, organism-based; conditions: in vivo
[3] = Unbound drug concentration in mouse brain at 30 mg/kg, po after 4 hrs; format: ADME, organism-based; conditions: in vivo
[4] = Plasma protein binding in cynomolgus monkey assessed as unbound fraction; format: ADME, cell-free, Macaca fascicularis
A-375 [5] = assay: Antitumor activity against human A-375 cells harboring BRAF V600E mutant xenografted in Nu/nu NCR mouse assessed as tumor flux inhibition at 10 to 30 mg/kg, po BID for 60 days; format: functional; parameters: scale not given: the % may be the effect or the level left; conditions: dose 10-30 mg/kg, time 60 day
[6] = Drug concentration in mouse plasma at 10 mg/kg, po after 4 hrs; format: ADME, organism-based
[7] = Protein binding in rat brain assessed as unbound fraction; format: ADME, tissue-based
[8] = Toxicity in Nu/nu NCR mouse subcutaneously xenografted with human A-375 cells harboring BRAF V600E mutant assessed as body weight loss at 5 to 10 mg/kg, po measured after 21 days; format: organism-based; conditions: in vivo, 504 h, dose 5-10 mg/kg, time 21 day
A-375 [9] = assay: Antitumor activity against human A-375 cells harboring BRAF V600E mutant xenografted in Nu/nu NCR mouse assessed as tumor regression at 5 mg/kg, po BID for 21 days; format: functional, organism-based; conditions: time 21.0 day
[10] = Plasma protein binding in dog assessed as unbound fraction; format: ADME, cell-free, Canis lupus familiaris
[11] = Tmax in mouse at 5 mg/kg, po; format: ADME, organism-based; conditions: in vivo
[12] = Plasma protein binding in rat assessed as unbound fraction; format: ADME, cell-free
[13] = Unbound drug concentration in mouse plasma at 5 mg/kg, po after 2 hrs; format: ADME, organism-based; conditions: in vivo
[14] = Volume of distribution at steady state in mouse at 3 mg/kg, iv; format: ADME, organism-based; conditions: in vivo, read-out: Vdss
[15] = target: Voltage-gated inwardly rectifying potassium channel KCNH2 (Homo sapiens, UniProt Q12809); assay: Inhibition of hERG; format: toxicity
Chain of Voltage-gated inwardly rectifying potassium channel KCNH2 (Q12809 whole entry): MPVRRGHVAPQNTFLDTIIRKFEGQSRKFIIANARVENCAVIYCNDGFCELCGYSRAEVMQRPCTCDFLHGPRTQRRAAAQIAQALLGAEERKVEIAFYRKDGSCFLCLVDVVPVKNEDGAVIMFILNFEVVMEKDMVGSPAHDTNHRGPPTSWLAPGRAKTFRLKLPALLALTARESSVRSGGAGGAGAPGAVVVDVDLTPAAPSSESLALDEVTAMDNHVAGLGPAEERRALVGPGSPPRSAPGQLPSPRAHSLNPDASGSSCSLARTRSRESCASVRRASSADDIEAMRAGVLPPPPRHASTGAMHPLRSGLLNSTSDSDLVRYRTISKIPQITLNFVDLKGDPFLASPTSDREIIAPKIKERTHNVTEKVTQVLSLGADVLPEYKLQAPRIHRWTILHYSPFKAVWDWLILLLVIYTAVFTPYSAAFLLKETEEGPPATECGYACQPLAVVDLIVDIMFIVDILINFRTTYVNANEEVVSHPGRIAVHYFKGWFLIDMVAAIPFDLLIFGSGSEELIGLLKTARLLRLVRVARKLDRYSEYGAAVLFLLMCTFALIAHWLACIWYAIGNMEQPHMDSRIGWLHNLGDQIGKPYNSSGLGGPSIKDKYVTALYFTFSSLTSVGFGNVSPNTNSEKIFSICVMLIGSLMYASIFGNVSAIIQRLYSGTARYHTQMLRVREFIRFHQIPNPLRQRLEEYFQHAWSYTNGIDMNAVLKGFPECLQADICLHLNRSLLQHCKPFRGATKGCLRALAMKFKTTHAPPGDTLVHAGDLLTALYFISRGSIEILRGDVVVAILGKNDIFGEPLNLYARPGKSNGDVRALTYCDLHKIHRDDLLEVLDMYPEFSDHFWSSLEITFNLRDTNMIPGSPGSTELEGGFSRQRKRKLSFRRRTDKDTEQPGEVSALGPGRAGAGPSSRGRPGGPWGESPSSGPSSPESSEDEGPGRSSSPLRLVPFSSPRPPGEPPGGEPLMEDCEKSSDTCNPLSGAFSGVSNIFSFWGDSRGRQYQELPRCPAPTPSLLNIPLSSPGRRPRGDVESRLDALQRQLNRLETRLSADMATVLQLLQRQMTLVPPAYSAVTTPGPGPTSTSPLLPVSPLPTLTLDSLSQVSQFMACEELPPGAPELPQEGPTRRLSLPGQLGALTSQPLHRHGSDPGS

[16] = Protein binding in mouse brain assessed as unbound fraction; format: ADME, tissue-based
[17] = Drug concentration in mouse plasma at 30 mg/kg, po after 2 hrs; format: ADME, organism-based
[18] = Plasma protein binding in human assessed as unbound fraction; format: ADME, cell-free
[19] = Drug concentration in mouse brain at 10 mg/kg, po after 4 hrs; format: ADME, organism-based; conditions: read-out: Ct
[20] = Unbound drug concentration in mouse plasma at 10 mg/kg, po after 4 hrs; format: ADME, organism-based; conditions: in vivo
[21] = Drug concentration in mouse plasma at 5 mg/kg, po after 4 hrs; format: ADME, organism-based
[22] = AUCinfinity in mouse at 30 mg/kg, po; format: ADME, organism-based; conditions: in vivo
[23] = Cmax in mouse at 5 mg/kg, po; format: ADME, organism-based; conditions: in vivo
[24] = Oral bioavailability in mouse at 10 mg/kg; format: ADME, organism-based; conditions: in vivo
[25] = Unbound drug concentration in mouse brain at 10 mg/kg, po after 4 hrs; format: ADME, organism-based; conditions: in vivo
[26] = Plasma protein binding in mouse assessed as unbound fraction; format: ADME, cell-free
[27] = Chemical stability in MeOH/NaHCO3/glutathione assessed as drug metabolism assessed as SN2 substitution after 50 degreeC overnight incubation; format: physicochemical; conditions: read-out: Drug metabolism
[28] = Drug concentration in mouse brain at 5 mg/kg, po after 2 hrs; format: ADME, organism-based; conditions: read-out: Ct
[29] = Protein binding in cynomolgus monkey brain assessed as unbound fraction; format: ADME, tissue-based, Macaca fascicularis
[30] = Protein binding in dog brain assessed as unbound fraction; format: ADME, tissue-based, Canis lupus familiaris
A-375 [31] = assay: Antitumor activity against human A-375 cells harboring BRAF V600E mutant xenografted in Nu/nu NCR mouse assessed as IC90 coverage time at 5 mg/kg, po BID for 21 days; format: functional; conditions: time 21 day
[32] = Drug concentration in mouse brain at 5 mg/kg, po after 4 hrs; format: ADME, organism-based; conditions: read-out: Ct
[33] = Unbound drug concentration in mouse plasma at 10 mg/kg, po after 2 hrs; format: ADME, organism-based; conditions: in vivo
[34] = Unbound drug concentration in mouse brain at 5 mg/kg, po after 2 hrs; format: ADME, organism-based; conditions: in vivo
[35] = Unbound drug concentration in mouse plasma at 30 mg/kg, po after 2 hrs; format: ADME, organism-based; conditions: in vivo
[36] = Chemical stability in MeOH/NaHCO3/cysteine assessed as drug metabolism assessed as SN2 substitution after 50 degreeC overnight incubation; format: physicochemical; conditions: read-out: Drug metabolism
A-375 [37] = assay: Antitumor activity against human A-375 cells harboring BRAF V600E mutant xenografted in Nu/nu NCR mouse assessed as IC90 coverage time at 10 mg/kg, po BID for 21 days; format: functional; conditions: time 21 day
[38] = Cmax in mouse at 10 mg/kg, po; format: ADME, organism-based; conditions: in vivo
A-375 [39] = assay: Antitumor activity against human A-375 cells harboring BRAF V600E mutant xenografted in Nu/nu NCR mouse assessed as tumor regression at 10 to 30 mg/kg, po BID for 60 days; format: functional; conditions: dose 10-30 mg/kg, time 60 day
[40] = Unbound drug concentration in mouse plasma at 5 mg/kg, po after 4 hrs; format: ADME, organism-based; conditions: in vivo
[41] = AUCinfinity in mouse at 5 mg/kg, po; format: ADME, organism-based; conditions: in vivo
[42] = Dissociation constant, pKa of the compound; format: physicochemical
[43] = Drug concentration in mouse brain at 10 mg/kg, po after 2 hrs; format: ADME, organism-based; conditions: read-out: Ct
[44] = Unbound drug concentration in mouse brain at 30 mg/kg, po after 2 hrs; format: ADME, organism-based; conditions: in vivo
[45] = Toxicity in Nu/nu NCR mouse intracerebrally xenografted with human A-375 cells harboring BRAF V600E mutant assessed as body weight loss at 5 to 10 mg/kg, po measured after 60 days; format: organism-based; conditions: in vivo, 1440 h, dose 5-10 mg/kg, time 60 day
[46] = Drug concentration in mouse plasma at 10 mg/kg, po after 2 hrs; format: ADME, organism-based
[47] = Drug concentration in mouse plasma at 30 mg/kg, po after 4 hrs; format: ADME, organism-based
[48] = Clearance in mouse at 3 mg/kg, iv; format: ADME, organism-based; conditions: in vivo
[49] = Tmax in mouse at 10 mg/kg, po; format: ADME, organism-based; conditions: in vivo
A-375 [50] = assay: Antitumor activity against human A-375 cells harboring BRAF V600E mutant xenografted in Nu/nu NCR mouse assessed as tumor regression at 10 mg/kg, po BID measured after 2 weeks; format: functional, organism-based
[51] = Apparent permeability across apical to basolateral side in LLC-PK1 cells; format: ADME, cell-based, Sus scrofa; conditions: pig
[52] = Unbound drug concentration in mouse brain at 10 mg/kg, po after 2 hrs; format: ADME, organism-based; conditions: in vivo
[53] = Tmax in mouse at 30 mg/kg, po; format: ADME, organism-based; conditions: in vivo
[54] = Solubility in stimulated gastric fluid at pH 1.2; format: ADME; conditions: simulated gastric fluid
[55] = Drug concentration in mouse brain at 30 mg/kg, po after 2 hrs; format: ADME, organism-based; conditions: read-out: Ct
A-375 [56] = assay: Antitumor activity against human A-375 cells harboring BRAF V600E mutant xenografted in Nu/nu NCR mouse assessed as IC90 coverage time at 10 mg/kg, po BID for 60 days; format: functional; conditions: time 60 day
[57] = Solubility in buffer at pH 7.4; format: physicochemical
[58] = Oral bioavailability in mouse at 5 mg/kg; format: ADME, organism-based; conditions: in vivo
[59] = Unbound drug concentration in mouse plasma at 30 mg/kg, po after 4 hrs; format: ADME, organism-based; conditions: in vivo
[60] = AUCinfinity in mouse at 10 mg/kg, po; format: ADME, organism-based; conditions: in vivo
[61] = Unbound drug concentration in mouse brain at 5 mg/kg, po after 4 hrs; format: ADME, organism-based; conditions: in vivo
[62] = Oral bioavailability in mouse at 30 mg/kg; format: ADME, organism-based; conditions: in vivo
[63] = Drug concentration in mouse brain at 30 mg/kg, po after 4 hrs; format: ADME, organism-based; conditions: read-out: Ct
[64] = Drug concentration in mouse plasma at 5 mg/kg, po after 2 hrs; format: ADME, organism-based
[65] = Half-life in mouse at 3 mg/kg, iv; format: ADME, organism-based; conditions: in vivo
[66] = Solubility in stimulated intestinal fluid at pH 6.5; format: ADME; conditions: simulated intestinal fluid
[67] = Toxicity in Nu/nu NCR mouse intracerebrally xenografted with human A-375 cells harboring BRAF V600E mutant assessed as animal death at 5 to 10 mg/kg, po measured after 60 days; format: organism-based; conditions: in vivo, 1440 h, dose 5-10 mg/kg, time 60 day
A-375 [68] = assay: Antitumor activity against human A-375 cells harboring BRAF V600E mutant xenografted in Nu/nu NCR mouse assessed as IC90 coverage time at 30 mg/kg, po BID for 60 days; format: functional; conditions: time 60 day
[69] = Substrate activity at P-gp in LLC-PK1 cells assessed as efflux ratio of apparent permeability from basolateral to apical side over apical to basolateral side; format: ADME, cell-based, Sus scrofa; conditions: pig
[70] = target: T1, Serine/threonine-protein kinase B-raf (Homo sapiens, UniProt P15056, V600E); assay: Inhibition of BRAF V600E mutant in human A-375 cells assessed as reduction in ERK phosphorylation; format: cell-based
T1 sequence (P15056 2-766 V600E limits assumed): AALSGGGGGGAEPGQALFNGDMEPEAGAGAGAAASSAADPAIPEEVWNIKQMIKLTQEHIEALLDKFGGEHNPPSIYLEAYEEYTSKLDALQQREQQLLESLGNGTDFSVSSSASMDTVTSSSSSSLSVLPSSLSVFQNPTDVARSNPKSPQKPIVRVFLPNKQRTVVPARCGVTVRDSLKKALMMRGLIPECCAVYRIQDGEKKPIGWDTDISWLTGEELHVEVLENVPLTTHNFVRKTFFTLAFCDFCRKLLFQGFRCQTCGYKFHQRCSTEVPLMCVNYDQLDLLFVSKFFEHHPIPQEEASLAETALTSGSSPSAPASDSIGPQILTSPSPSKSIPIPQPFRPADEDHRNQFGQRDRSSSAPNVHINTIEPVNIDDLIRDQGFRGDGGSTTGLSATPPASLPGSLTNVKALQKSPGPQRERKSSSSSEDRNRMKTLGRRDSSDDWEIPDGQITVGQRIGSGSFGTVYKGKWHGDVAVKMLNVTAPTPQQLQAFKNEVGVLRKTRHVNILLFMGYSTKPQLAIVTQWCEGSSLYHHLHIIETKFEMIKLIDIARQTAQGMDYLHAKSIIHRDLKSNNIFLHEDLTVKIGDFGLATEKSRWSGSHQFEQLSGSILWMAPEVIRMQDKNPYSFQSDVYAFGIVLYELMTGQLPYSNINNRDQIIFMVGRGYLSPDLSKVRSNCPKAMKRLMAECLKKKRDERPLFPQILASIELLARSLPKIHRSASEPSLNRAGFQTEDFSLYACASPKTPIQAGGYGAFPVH

[71] = Substrate activity at BCRP in LLC-PK1 cells assessed as efflux ratio of apparent permeability from basolateral to apical side over apical to basolateral side; format: ADME, cell-based, Sus scrofa; conditions: pig
[72] = target: T1, Serine/threonine-protein kinase B-raf; assay: Inhibition of 6-His tagged BRAF V600E mutant (445 to 723 residues) (unknown origin)

**Q.** What does the source list for `Cc1c(Nc2c(F)ccc(NS(=O)(=O)CCCF)c2Cl)ccc2ncn(C)c(=O)c12` [TINLORAFENIB]?
**A.** Activity (A-375 [1]): inactive; Cmax [2]: 18000 ng/mL; Drug uptake(free) [3]: 0.18 µg/g; fraction unbound [4]: 0.011; Activity (A-375 [5]): >99%; concentration at 4 h [6]: 9900 ng/mL; fraction unbound [7]: 0.068; Activity [8]: < 5%; Activity (A-375 [9]): Active; fraction unbound [10]: 0.017; Tmax [11]: 1 h; fraction unbound [12]: 0.003; Cp(f) [13]: 79 ng/mL; Vd [14]: 0.59 L/kg; IC50 [15]: 49700 nM; fraction unbound [16]: 0.087; concentration at 2 h [17]: 16000 ng/mL; fraction unbound [18]: 0.009; concentration at 4 h [19]: 1600 ng/g; Cp(f) [20]: 190 ng/mL; concentration at 4 h [21]: 3100 ng/mL; AUC(0-inf) [22]: 176000 ng·h/mL; Cmax [23]: 4700 ng/mL; F [24]: 192%; Drug uptake(free) [25]: 0.14 µg/g; fraction unbound [26]: 0.019; degraded [27]: < 1%; concentration at 2 h [28]: 590 ng/g; fraction unbound [29]: 0.068; fraction unbound [30]: 0.073; Time (A-375 [31]): ~8 h; concentration at 4 h [32]: 530 ng/g; Cp(f) [33]: 220 ng/mL; Drug uptake(free) [34]: 0.051 µg/g; Cp(f) [35]: 300 ng/mL; degraded [36]: < 1%; Time (A-375 [37]): >16 h; Cmax [38]: 14000 ng/mL; Activity (A-375 [39]): >90%; Cp(f) [40]: 59 ng/mL; AUC(0-inf) [41]: 28000 ng·h/mL; pKa [42]: 7.41; concentration at 2 h [43]: 1600 ng/g; Drug uptake(free) [44]: 0.21 µg/g; Activity [45]: < 5%; concentration at 2 h [46]: 11000 ng/mL; concentration at 4 h [47]: 12000 ng/mL; clearance [48]: 3.7 mL/min/kg; Tmax [49]: 1 h; Activity (A-375 [50]): Active; Papp A→B [51]: 36 ×10⁻⁶ cm/s; Drug uptake(free) [52]: 0.14 µg/g; Tmax [53]: 1 h; solubility [54]: 132 µg/mL (≈ 289 µM); concentration at 2 h [55]: 2400 ng/g; Time (A-375 [56]): ~16 h; solubility [57]: 9.1 µg/mL (≈ 19.9 µM); bioavailability [58]: 126%; Cp(f) [59]: 230 ng/mL; AUC(0-inf) [60]: 86000 ng·h/mL; Drug uptake(free) [61]: 0.046 µg/g; bioavailability [62]: 130%; concentration at 4 h [63]: 2100 ng/g; concentration at 2 h [64]: 4200 ng/mL; half-life [65]: 1.9 h; solubility [66]: 7.6 µg/mL (≈ 16.6 µM); Activity [67]: Non-Toxic; Time (A-375 [68]): >24 h

**Q.** For `CCCS(=O)(=O)Nc1ccc(Cl)c(Nc2ccc3ncn(C)c(=O)c3c2)c1F`, which Ratio [69] is on record?
**A.** 7.1

**Q.** And the IC50 [70]?
**A.** 142 nM

**Q.** And the Ratio [71]?
**A.** 18.9

**Q.** What about the Papp A→B [51] of the same compound?
**A.** 48 ×10⁻⁶ cm/s

**Q.** What about the IC50 [72] of the same compound?
**A.** 60.3 nM
